Assay results reported in ChEMBL document CHEMBL1148579, “Influence of various central moieties on the hypolipidemic properties of long hydrocarbon chain diols and diacids” (J Med Chem, 2006).

Key:
Rattus norvegicus [1] = assay: Activity against high density lipoprotein cholesterol level in obese female Zucker rat serum after 1 week at 100 mg/kg (percent change from pre-treatment); assay type: functional
Rattus norvegicus [2] = assay: Tmax of the metabolite 13-hydroxy-2,2,12,12-tetramethyl-7-oxotridecanoic acid in male Wistar rat administered with the parent compound at 100 mg/kg, po; assay type: ADME, organism-based; design: dose 100 mg/kg, route oral; details: in vivo
Rattus norvegicus [3] = assay: AUC (infinity) of the metabolite 7-hydroxy-2,2,12,12-tetramethyltridecanedioic acid in male Wistar rat administered with the parent compound at 100 mg/kg, po; assay type: ADME, organism-based, Plasma; design: time infinity, dose 100 mg/kg, route oral; details: in vivo
Rattus norvegicus [4] = assay: Half life of the metabolite 2,2,12,12-tetramethyl-7-oxotridecanedioic acid in male Wistar rat administered with the parent compound at 100 mg/kg, po; assay type: ADME, organism-based; design: dose 100 mg/kg, route oral; details: in vivo
Rattus norvegicus [5] = assay: Half life of the metabolite 7,13-dihydroxy-2,2,12,12-tetramethyltridecanoic acid in male Wistar rat administered with the parent compound at 100 mg/kg, po; assay type: ADME, organism-based; design: dose 100 mg/kg, route oral; details: in vivo
Rattus norvegicus [6] = assay: Volume of distribution of the metabolite 13-hydroxy-2,2,12,12-tetramethyl-7-oxotridecanoic acid in male Wistar rat administered with the parent compound at 100 mg/kg, po; assay type: ADME, organism-based; design: dose 100 mg/kg, route oral; details: in vivo
Rattus norvegicus [7] = assay: Volume of distribution of the metabolite 7,13-dihydroxy-2,2,12,12-tetramethyltridecanoic acid in male Wistar rat administered with the parent compound at 100 mg/kg, po; assay type: ADME, organism-based; design: dose 100 mg/kg, route oral; details: in vivo
Rattus norvegicus [8] = assay: AUC (infinity) of the metabolite 2,2,12,12-tetramethyl-7-oxotridecanedioic acid in male Wistar rat administered with the parent compound at 100 mg/kg, po; assay type: ADME, organism-based, Plasma; design: time infinity, dose 100 mg/kg, route oral; details: in vivo
Rattus norvegicus [9] = assay: AUC of the metabolite 7-hydroxy-2,2,12,12-tetramethyltridecanedioic acid in male Wistar rat administered with the parent compound at 100 mg/kg, po; assay type: ADME, organism-based, Plasma; design: dose 100 mg/kg, route oral; details: in vivo
Rattus norvegicus [10] = assay: AUC of the metabolite 7,13-dihydroxy-2,2,12,12-tetramethyltridecanoic acid in male Wistar rat administered with the parent compound at 100 mg/kg, po; assay type: ADME, organism-based, Plasma; design: dose 100 mg/kg, route oral; details: in vivo
Rattus norvegicus [11] = assay: AUC (infinity) of the metabolite 13-hydroxy-2,2,12,12-tetramethyl-7-oxotridecanoic acid in male Wistar rat administered with the parent compound at 100 mg/kg, po; assay type: ADME, organism-based, Plasma; design: time infinity, dose 100 mg/kg, route oral; details: in vivo
Rattus norvegicus [12] = assay: Clearance of the metabolite 2,2,12,12-tetramethyl-7-oxotridecanedioic acid in male Wistar rat administered with the parent compound at 100 mg/kg, po; assay type: ADME, organism-based; design: dose 100 mg/kg, route oral; details: in vivo
Rattus norvegicus [13] = assay: Activity against triglyceride level in obese female Zucker rat serum after 2 weeks at 100 mg/kg (percent change from pre-treatment); assay type: functional
Rattus norvegicus [14] = assay: Cmax of the metabolite 7-hydroxy-2,2,12,12-tetramethyltridecanedioic acid in male Wistar rat administered with the parent compound at 100 mg/kg, po; assay type: ADME, organism-based; design: dose 100 mg/kg, route oral; details: in vivo
Rattus norvegicus [15] = assay: Half life of the metabolite 7-hydroxy-2,2,12,12-tetramethyltridecanedioic acid in male Wistar rat administered with the parent compound at 100 mg/kg, po; assay type: ADME, organism-based; design: dose 100 mg/kg, route oral; details: in vivo
Rattus norvegicus [16] = assay: Clearance of the metabolite 7,13-dihydroxy-2,2,12,12-tetramethyltridecanoic acid in male Wistar rat administered with the parent compound at 100 mg/kg, po; assay type: ADME, organism-based; design: dose 100 mg/kg, route oral; details: in vivo
Rattus norvegicus [17] = assay: Tmax of the metabolite 2,2,12,12-tetramethyl-7-oxotridecanedioic acid in male Wistar rat administered with the parent compound at 100 mg/kg, po; assay type: ADME, organism-based; design: dose 100 mg/kg, route oral; details: in vivo
Rattus norvegicus [18] = assay: Activity against high density lipoprotein cholesterol level in obese female Zucker rat serum after 2 weeks at 100 mg/kg (percent change from pre-treatment); assay type: functional
Rattus norvegicus [19] = assay: Clearance of the metabolite 13-hydroxy-2,2,12,12-tetramethyl-7-oxotridecanoic acid in male Wistar rat administered with the parent compound at 100 mg/kg, po; assay type: ADME, organism-based; design: dose 100 mg/kg, route oral; details: in vivo
Rattus norvegicus [20] = assay: Clearance of the metabolite 7-hydroxy-2,2,12,12-tetramethyltridecanedioic acid in male Wistar rat administered with the parent compound at 100 mg/kg, po; assay type: ADME, organism-based; design: dose 100 mg/kg, route oral; details: in vivo
Rattus norvegicus [21] = assay: AUC of the metabolite 2,2,12,12-tetramethyl-7-oxotridecanedioic acid in male Wistar rat administered with the parent compound at 100 mg/kg, po; assay type: ADME, organism-based, Plasma; design: dose 100 mg/kg, route oral; details: in vivo
Rattus norvegicus [22] = assay: Activity against non high density lipoprotein cholesterol level in obese female Zucker rat serum after 1 week at 100 mg/kg (percent change from pre-treatment); assay type: functional
Rattus norvegicus [23] = assay: AUC of the metabolite 13-hydroxy-2,2,12,12-tetramethyl-7-oxotridecanoic acid in male Wistar rat administered with the parent compound at 100 mg/kg, po; assay type: ADME, organism-based, Plasma; design: dose 100 mg/kg, route oral; details: in vivo
Rattus norvegicus [24] = assay: Activity against non high density lipoprotein cholesterol level in obese female Zucker rat serum after 2 weeks at 100 mg/kg (percent change from pre-treatment); assay type: functional
Rattus norvegicus [25] = assay: Volume of distribution of the metabolite 2,2,12,12-tetramethyl-7-oxotridecanedioic acid in male Wistar rat administered with the parent compound at 100 mg/kg, po; assay type: ADME, organism-based; design: dose 100 mg/kg, route oral; details: in vivo
Rattus norvegicus [26] = assay: Cmax of the metabolite 7,13-dihydroxy-2,2,12,12-tetramethyltridecanoic acid in male Wistar rat administered with the parent compound at 100 mg/kg, po; assay type: ADME, organism-based; design: dose 100 mg/kg, route oral; details: in vivo
Rattus norvegicus [27] = assay: Half life of the metabolite 13-hydroxy-2,2,12,12-tetramethyl-7-oxotridecanoic acid in male Wistar rat administered with the parent compound at 100 mg/kg, po; assay type: ADME, organism-based; design: dose 100 mg/kg, route oral; details: in vivo
Rattus norvegicus [28] = assay: Tmax of the metabolite 7-hydroxy-2,2,12,12-tetramethyltridecanedioic acid in male Wistar rat administered with the parent compound at 100 mg/kg, po; assay type: ADME, organism-based; design: dose 100 mg/kg, route oral; details: in vivo
Rattus norvegicus [29] = assay: Volume of distribution of the metabolite 7-hydroxy-2,2,12,12-tetramethyltridecanedioic acid in male Wistar rat administered with the parent compound at 100 mg/kg, po; assay type: ADME, organism-based; design: dose 100 mg/kg, route oral; details: in vivo
Rattus norvegicus [30] = assay: Tolerability of compound upto 2000 mg/kg; assay type: organism-based; design: dose 2000 mg/kg; details: in vivo
Rattus norvegicus [31] = assay: Tmax of the metabolite 7,13-dihydroxy-2,2,12,12-tetramethyltridecanoic acid in male Wistar rat administered with the parent compound at 100 mg/kg, po; assay type: ADME, organism-based; design: dose 100 mg/kg, route oral; details: in vivo
Rattus norvegicus [32] = assay: Cmax of the metabolite 2,2,12,12-tetramethyl-7-oxotridecanedioic acid in male Wistar rat administered with the parent compound at 100 mg/kg, po; assay type: ADME, organism-based; design: dose 100 mg/kg, route oral; details: in vivo
Hepatocyte = assay: Inhibition of lipid synthesis in primary rat hepatocytes by incorporation radiolabeled acetate into cellular lipids; assay type: functional, cell-based, Sprague-Dawley; details: Rattus norvegicus, Sprague-Dawley, Hepatocyte; read-out: IC50
Rattus norvegicus [33] = assay: AUC (infinity) of the metabolite 7,13-dihydroxy-2,2,12,12-tetramethyltridecanoic acid in male Wistar rat administered with the parent compound at 100 mg/kg, po; assay type: ADME, organism-based, Plasma; design: time infinity, dose 100 mg/kg, route oral; details: in vivo
Rattus norvegicus [34] = assay: Cmax of the metabolite 13-hydroxy-2,2,12,12-tetramethyl-7-oxotridecanoic acid in male Wistar rat administered with the parent compound at 100 mg/kg, po; assay type: ADME, organism-based; design: dose 100 mg/kg, route oral; details: in vivo
Rattus norvegicus [35] = assay: Activity against triglyceride level in obese female Zucker rat serum after 1 week at 100 mg/kg (percent change from pre-treatment); assay type: functional
[36] = Cmax in male Wistar rat at 100 mg/kg, po; assay type: ADME, organism-based; design: dose 100 mg/kg, route oral; details: in vivo
[37] = Tmax in male Wistar rat at 100 mg/kg, po; assay type: ADME, organism-based; design: dose 100 mg/kg, route oral; details: in vivo
[38] = Clearance in male Wistar rat at 100 mg/kg, po; assay type: ADME, organism-based; design: dose 100 mg/kg, route oral; details: in vivo
[39] = Half life in male Wistar rat at 100 mg/kg, po; assay type: ADME, organism-based; design: dose 100 mg/kg, route oral; details: in vivo
[40] = AUC in male Wistar rat at 100 mg/kg, po; assay type: ADME, organism-based; design: dose 100 mg/kg, route oral; details: plasma
[41] = AUC (infinity) in male Wistar rat at 100 mg/kg, po; assay type: ADME, organism-based; design: time infinity, dose 100 mg/kg, route oral; details: plasma
Rattus norvegicus [42] = assay: Volume of distribution in male Wistar rat at 100 mg/kg, po; assay type: ADME, organism-based; design: dose 100 mg/kg, route oral; details: in vivo
Rattus norvegicus [43] = assay: Tolerability of compound upto 5000 mg/kg; assay type: ADME, organism-based; design: dose 5000 mg/kg; details: in vivo

## CC(C)(CO)CCCCC(=O)CCCCC(C)(C)CO
Rattus norvegicus [1]
  Activity: 111%
Rattus norvegicus [2]
  Tmax: 0.5 h
Rattus norvegicus [3]
  AUC: 1176.1 µg·h/mL
Rattus norvegicus [4]
  T1/2: 13.5 h
Rattus norvegicus [5]
  T1/2: 3.1 h
Rattus norvegicus [6]
  Vdss: 13.6709 L/kg
Rattus norvegicus [7]
  Vdss: 1.5332 L/kg
Rattus norvegicus [8]
  AUC: 344.9 µg·h/mL
Rattus norvegicus [9]
  AUC: 703.3 µg·h/mL
Rattus norvegicus [10]
  AUC: 289.9 µg·h/mL
Rattus norvegicus [11]
  AUC: 26.8 µg·h/mL
Rattus norvegicus [12]
  CL: 86.8 mL/h
Rattus norvegicus [13]
  Activity: -29%
Rattus norvegicus [14]
  Cmax: 40600 ng/mL
Rattus norvegicus [15]
  T1/2: 16.9 h
Rattus norvegicus [16]
  CL: 69 mL/h
Rattus norvegicus [17]
  Tmax: 6 h
Rattus norvegicus [18]
  Activity: 126%
Rattus norvegicus [19]
  CL: 747.9 mL/h
Rattus norvegicus [20]
  CL: 28.4 mL/h
Rattus norvegicus [21]
  AUC: 230.3 µg·h/mL
Rattus norvegicus [22]
  Activity: -23%
Rattus norvegicus [23]
  AUC: 26.7 µg·h/mL
Rattus norvegicus [24]
  Activity: -10%
Rattus norvegicus [25]
  Vdss: 5.6319 L/kg
Rattus norvegicus [26]
  Cmax: 21400 ng/mL
Rattus norvegicus [27]
  T1/2: 2.5 h
Rattus norvegicus [28]
  Tmax: 6 h
Rattus norvegicus [29]
  Vdss: 2.0721 L/kg
Rattus norvegicus [30]
  Activity: Active
Rattus norvegicus [31]
  Tmax: 6 h
Rattus norvegicus [32]
  Cmax: 14900 ng/mL
Hepatocyte
  IC50: 1.5 µM
Rattus norvegicus [33]
  AUC: 291.6 µg·h/mL
Rattus norvegicus [34]
  Cmax: 2000 ng/mL
Rattus norvegicus [35]
  Activity: -54%

## CC(C)(CCCCC(O)CCCCC(C)(C)C(=O)O)C(=O)O
Rattus norvegicus [1]
  Activity: 57%
[36]
  Cmax: 40600 ng/mL
[37]
  Tmax: 6 h
[38]
  CL/F: 0.473 mL/min
[39]
  half-life: 16.9 h
[40]
  AUC: 703 µg·h/mL
Rattus norvegicus [13]
  Activity: -59%
[41]
  AUC(0-inf): 1180 µg·h/mL
Rattus norvegicus [18]
  Activity: 50%
Rattus norvegicus [42]
  Vdss: 2.0721 L/kg
Rattus norvegicus [22]
  Activity: -6%
Rattus norvegicus [24]
  Activity: -41%
Hepatocyte
  IC50: 4.7 µM
Rattus norvegicus [35]
  Activity: -32%

## CC(C)(CO)CCCCSCCCCC(C)(C)CO
Rattus norvegicus [1]
  Activity: 141%
Rattus norvegicus [43]
  Activity: Active
Rattus norvegicus [13]
  Activity: -56%
Rattus norvegicus [18]
  Activity: 153%
Rattus norvegicus [22]
  Activity: -11%
Rattus norvegicus [24]
  Activity: 9%
Hepatocyte
  IC50: 18 µM
Rattus norvegicus [35]
  Activity: -37%
